Experimental data published in patent US5585385A, “Heterocyclic compounds, their production and use as tachykinin reactor antagonists” (Takeda Chemical Industries, Ltd., priority 1993, dated 1996).

Tests used:
[1] = system: plasma extravasation induced by capsaicin in trachea; test: Inhibitory effect on plasma extravasation induced by capsaicin in trachea of guinea pigs; format: in vivo, guinea pigs (Hartley type white male); conditions: Cavia porcellus, iv, 5 min, 5 min before capsaicin (150 μg/kg i.v.), guinea pig trachea, n=6; for inhibition in vivo at 0.03 mg/kg: 0.03 mg/kg i.v.; for inhibition in vivo at 0.1 mg/kg: 0.1 mg/kg i.v.
Description: Inhibitory effect on plasma extravasation induced by capsaicin in trachea of guinea pigs
Guinea pigs (Hartley type white male guinea pigs), (n=6) were anesthetized with 35 mg/kg of pentobarbital injected intraperitoneally (i.p.), then test compounds were administered intravenously (i.v.). After 5 minutes, a mixed solution of capsaicin (150 μg/kg) and Evans' blue dye (20 mg/kg) was administered intravenously to cause reaction. Ten minutes later, test animals were sacrificed by cutting the aorta, then perfused through pulmonary artery with 50 ml of physiological saline. The trachea was excised, and its wet weight was measured. The trachea was incubated at room temperature in 1 ml of acetone-0.3% sodium sulfate (7:3) overnight and Evans' blue dye was extracted from the trachea. The extract solution was centrifuged at 2800 rpm for 5 minutes. The amount of Evans' blue dye in the supernatant was quantified by measuring absorbance at […].
Plasma extravasation was expressed in terms of the amount of Evans' blue dye (μg) relative to the weight of the trachea (g). The efficacy of the drug was evaluated by calculating the % inhibition in accordance with the following formula. [formula] A: the amount of Evan's blue dye (μg/g) in each test animal B: the mean amount of Evan's blue dye (μg/g) of the group untreated with capsaicin.
C: the mean amount of Evan's blue dye (μg/g) of control group

substance P receptor = target: T1, substance P receptor (Homo sapiens, UniProt P25103); test: Radioligand receptor binding inhibitory activity using receptor from human lymphoblast cells (IM-9), 125I-BHSP; conditions: human IM-9 cell receptor, 25° C., 30 minutes, pH 7.4, n=1
T1 construct: The receptor was prepared from human lymphoblast cells (IM-9); endogenous in cells; host or cells: IM-9 human lymphoblast cells (crude membrane preparation)
T1 sequence (P25103 whole entry): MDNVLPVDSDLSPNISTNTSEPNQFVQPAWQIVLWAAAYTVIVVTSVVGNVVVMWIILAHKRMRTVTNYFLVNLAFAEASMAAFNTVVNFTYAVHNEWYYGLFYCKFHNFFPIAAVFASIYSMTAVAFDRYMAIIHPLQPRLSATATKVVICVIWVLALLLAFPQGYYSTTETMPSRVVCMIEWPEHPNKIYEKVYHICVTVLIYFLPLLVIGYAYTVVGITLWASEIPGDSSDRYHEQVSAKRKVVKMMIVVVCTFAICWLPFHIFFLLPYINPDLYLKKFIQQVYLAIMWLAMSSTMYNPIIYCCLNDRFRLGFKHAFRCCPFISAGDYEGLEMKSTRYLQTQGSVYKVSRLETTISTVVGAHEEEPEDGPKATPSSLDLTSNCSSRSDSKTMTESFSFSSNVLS
Description: Radioligand receptor binding inhibitory activity
Binding inhibitory activity using receptor from human lymphoblast cells (IM-9)
The method of A. Margaret "Molecular Pharmacology 42, p.458 (1992)" was modified and used. The receptor was prepared from human lymphoblast cells (IM-9). IM-9 cells (2×10^5 cells/ml) were inoculated and incubated for 3 days (one liter), which was then subjected to centrifuge for 5 minutes at 500×g to obtain cell pellets. The pellets were washed once with phosphate buffer (Flow Laboratories, CAT. No. 28-103-05), which were then crushed using Polytron.homogenizer "Kinematika, Germany" in 30 ml of 50 mM Tris-HCl buffer (pH 7.4) containing 120 mM sodium chloride, 5 mM potassium chloride, 2 μg/ml chymostatin, 40 μg/ml bacitracin, 5 μg/ml phosphoramidon, 0.5 mM phenylmethyl sulfonyl fluoride, 1 mM ethylenediamine tetra-acetic acid, which was subjected to centrifuge at 40,000×g for 20 minutes. The residue was washed twice with 30 ml of the above-mentioned buffer, which was then preserved frozen (-80° C.) as a specimen of the receptor.
The specimen was suspended in a reaction buffer (50 mM Tri-HCl buffer (pH 7.4), 0.02% bovine serum albumin, 1 mM phenylmethylsulfonyl fluoride, 2 μg/chymostatin, 40 μg/ml bacitracin, 3 mM manganese chloride) and 100 ul portion was the suspension was used in the reaction. After addition of the sample and ^125 I-BHSP (0.46 KBq), the reaction was allowed to proceed in 0.2 ml of reaction buffer at 25° C. for 30 minutes. The amount of nonspecific binding was determined by adding substance P at a final concentration of 2×10^-6 M. After the reaction, using a cell harvester (290 PHD, Cambridge Technology, Inc, U.S.A.), rapid filtration was carried out through a glass filter (GF/B, Whatman, U.S.A.) to stop the reaction. After washing three times with 250 ul of 50 mM of Tris-HCl buffer (pH 7.4) containing 0.02% bovine serum albumin, the radioactivity remaining on the filter was determined with a gamma counter. Before use, the filter was immersed in 0.1% polyethyleneimine for 24 hours and air-dried. […] (Radioligand means substance P labelled with ^125 I.) The number of this experiment is one.

SMILES | inhibition in vivo at 0.03 mg/kg [1] [%] | IC50 (substance P receptor) [nM] | inhibition in vivo at 0.1 mg/kg [1] [%]
CN(Cc1cc(C(F)(F)F)cc(C(F)(F)F)c1)C(=O)c1c(-c2ccc(F)cc2)c2cccnc2c(=O)n1C [Example 1, N-[3,5-Bis(trifluoromethyl)benzyl]-5-(4-fluorophenyl)-7,8-dihydro-N, 7-dimethyl-8-oxo-6-pyrido[3,4-b]pyridine carboxamide] | 76.1 | 0.08 | 
CN(Cc1cc(C(F)(F)F)cc(C(F)(F)F)c1)C(=O)c1c(-c2ccc(F)cc2)c2ccn(C)c2c(=O)n1C [Example 39, N-[3,5-Bis(trifluoromethyl)benzyl]-4-(4-fluorophenyl)-6,7-dihydro-N,1,6-trimethyl-7-oxo-5-pyrrolo[2,3-c]pyridinecarboxamide] |  | 0.28 | 67.9
CN(Cc1cc(C(F)(F)F)cc(C(F)(F)F)c1)C(=O)c1c(-c2ccc(F)cc2)c2c(c(=O)n1C)CNCC2 [Example 53, N-[3,5-Bis(trifluoromethyl)benzyl]-4-(4-fluorophenyl)-1,2,5,6,7,8-hexahydro-N,2-dimethyl-1-oxo-3-pyrido[3,4-c]pyridinecarboxamide] |  | 0.15 | 59.9
COc1ccc(-c2c(C(=O)N(C)Cc3cc(C(F)(F)F)cc(C(F)(F)F)c3)n(C)c(=O)c3ncccc23)cc1 [Example 57, N-[3,5-Bis(trifluoromethyl)benzyl]-7,8-dihydro-5-(4-methoxyphenyl)-N,7-dimethyl-8-oxo-6-pyrido[3,4-b]pyridinecarboxamide] |  | 3.8 | 51.4
CN(Cc1cc(C(F)(F)F)cc(C(F)(F)F)c1)C(=O)c1c(-c2ccc(F)cc2)c2c(c(=O)n1C)CCCN2 [Example 27, N-[3,5-Bis(trifluoromethyl)benzyl]-8-(4-fluorophenyl)-1,2,3,4,5,6-hexahydro-N, 6-dimethyl-5-oxo-7-pyrido[4,3-b]pyridinecarboxamide] |  | 0.18 | 74
CN1CCc2c(-c3ccccc3)c(C(=O)N(C)Cc3cc(C(F)(F)F)cc(C(F)(F)F)c3)n(C)c(=O)c2C1 [Example 50, N-[3,5-Bis(trifluoromethyl)benzyl]-1,2,5,6,7,8-hexahydro-N,2,7-trimethyl-1-oxo-4-phenyl-3-pyrido[3,4-c]pyridinecarboxamide] |  | 0.4 | 52.2
CN(Cc1cc(C(F)(F)F)cc(C(F)(F)F)c1)C(=O)c1c(-c2ccc(F)cc2)c2ccsc2c(=O)n1C [Example 13, N-[3,5-Bis(trifluoromethyl)benzyl]-4-(4-fluorophenyl)-6,7-dihydro-N, 6-dimethyl-7-oxo-5-thieno[2,3-c]pyridinecarboxamide] |  | 0.08 | 76.1
CN(Cc1cc(C(F)(F)F)cc(C(F)(F)F)c1)C(=O)c1c(-c2ccccc2)c2cccnc2c(=O)n1C [Example 36, N-[3,5-Bis(trifluoromethyl)benzyl]-7,8-dihydro-N, 7-dimethyl-8-oxo-5-phenyl-6-pyrido[3,4-b]pyridinecarboxamide] | 54.3 | 0.34 | 
CN(Cc1cc(C(F)(F)F)cc(C(F)(F)F)c1)C(=O)c1c(-c2ccc(F)cc2)c2sccc2c(=O)n1C [Example 17, N-[3,5-Bis(trifluoromethyl)benzyl]-7-(4-fluorophenyl)-4,5-dihydro-N, 5-dimethyl-4-oxo-6-thieno[3,2-c]pyridinecarboxamide] |  | 0.31 | 51.5
Cc1ccc(-c2c(C(=O)N(C)Cc3cc(C(F)(F)F)cc(C(F)(F)F)c3)n(C)c(=O)c3ncccc23)cc1 [Example 56, N-[3,5-Bis(trifluoromethyl)benzyl]-7,8-dihydro-N, 7-dimethyl-5-(4-methylphenyl)-8-oxo-6-pyrido[3,4-b]pyridinecarboxamide] | 58.1 | 0.34 | 
CN(Cc1cc(C(F)(F)F)cc(C(F)(F)F)c1)C(=O)c1c(-c2ccc(F)cc2)c2nccnc2c(=O)n1C [Example 7, N-[3,5-Bis(trifluoromethyl)benzyl]-8-(4-fluorophenyl)-5,6-dihydro-N, 6-dimethyl-5-oxo-7-pyrido[3,4-b]pyrazine carboxamide] |  | 0.2 | 71.9
